The subject of assay [1] is non-obese diabetic (NOD) mouse model of diabetes and Sjögren's Syndrome. Put plainly: NOD mouse model: histology of salivary and lacrimal glands and pancreas. In kind it is in vivo. The conditions noted are these: NOD mice, drinking water, 12 weeks, compared to control mice; for inflammation of the salivary and lacrimal glands (exocrine glands): corresponding to a human dose of about 10 g/day. The source says:
The anti-inflammatory effect of HMOs is investigated in the non-obese diabetic (NOD) mouse model of diabetes and Sjögren's Syndrome.
(§1) The mice are divided into four groups (n=8) with a control group receiving standard tap water, and the three treatment groups receiving supplementation with 2′-FL, mixture of 2′-FL and DFL (in a 4:1 ratio by weight), or 6′-SL in the drinking water, corresponding to a human daily dose of about 10 grams (calculated by metabolic rate and daily water consumption of NOD mice strains).
(§2) The mice receive the treatment for 12 weeks with bi-weekly water changes. From 12 weeks of age, the blood-glucose levels of the mice are checked weekly. Mice with blood-glucose levels above 7 mmol/l are closely monitored and euthanised (and excluded from the study) if their blood glucose levels increase to ≥12 mmol/l on two consecutive measurements.
(§3) After 12 weeks treatment the mice are euthanised, and the following are sampled; serum, pancreas, salivary glands, Haarderian lacrimal glands, extraorbital lacrimal glands, as well as caecum and colon content.
The salivary and lacrimal glands are analysed by measuring the total area of inflammatory foci in relation to the total gland size on eight (salivary glands) and two (lacrimal glands) haematoxylin and eosin-stained paraffin-embedded sections per mouse. The pancreas is similarly analysed using histological sections scoring a minimum of 25 (preferably 50) islets of Langerhans for the degree of insulitis with a score ranging from 0-3 (0=no insulitis, 1=peri-insulitis, 2=infiltratory insulitis compromising ≤50% of the islet, 3=infiltratory insulitis compromising ≥50% of the islet).

Assay [2] can be described thus: NOD mouse model: short chain fatty acids in caecum content and serum. It is filed as in vivo. The following applies: NOD mice, 12 weeks; for acetate concentration in serum: compared to control animals.
From the text: as §1, §2, §3
Caecum content and serum are used to measure the concentration of short chain fatty acids, namely acetate, propionate and butyrate. Faecal samples obtained at baseline together with colon content sampled after euthanasia are used for 16S rRNA genomic sequencing of the microbiota.

`CC(=O)N[C@H]1[C@H]([C@H](O)[C@H](O)CO)O[C@@](OC[C@H]2O[C@@H](O[C@H]3[C@H](O)[C@@H](O)[C@H](O)O[C@@H]3CO)[C@H](O)[C@@H](O)[C@H]2O)(C(=O)O)C[C@@H]1O` [6′-SL, 6′-sialyllactose]: in assay [1], the “insulitis of the pancreas” value is reported as “reduced”; the “inflammation of the salivary and lacrimal glands (exocrine glands)” value is given as “reduce”. In addition, in assay [2], the “acetate concentration in caecum” value was “increase”, the “concentration of caecum butyrate” value is “increase” and the “acetate concentration in serum” value is reported as “increase”.
On to 2′-fucosyllactose [2′-FL], for which, in assay [1], the “insulitis of the pancreas” value was “reduced”; the “inflammation of the salivary and lacrimal glands (exocrine glands)” value was “reduce”. Moreover, in assay [2], the “acetate concentration in serum” value is “increases”.

Source of the values: patent US11554131B2, “Mixture of HMOs for treating autoimmune diseases” (Glycom A/S, priority 2018, dated 2023).
